What all share (type): functional
Experiment [1] relates to Mus musculus. The experiment is described as follows: Inhibition of acetic acid induced writhing in mice at dose of 1.56 mg/kg. A general note: An intraperitoneal irritant provokes the stretching counted in writhing tests.
Experiment [2] has as its system Mus musculus. The experiment is described as follows: Inhibition of acetic acid induced writhing in mice at dose of 6.25 mg/kg.
The subject of experiment [3] is Mus musculus. The experiment is described as follows: Inhibition of acetic acid induced writhing in mice at dose of 3.12 mg/kg.
Experiment [4] concerns Mus musculus. Briefly: Inhibition of acetic acid induced writhing in mice at dose of 25.0 mg/kg.
The test system of experiment [5] is Mus musculus. The experiment is described as follows: Inhibition of acetic acid induced writhing in mice at dose of 12.5 mg/kg.
Experiment [6] deals with Mus musculus. The experiment is described as follows: Compound was tested for hyperalgesia in mice induced by formalin expressed as time of licking at late phase(up to 30 min) at dose 25 mg/kg.
Experiment [7] relates to Mus musculus. Briefly: Compound was tested for hyperalgesia in mice induced by formalin expressed as time of licking at initial phase(up to 5 min)at dose 25 mg/kg.
Experiment [8] relates to Mus musculus. Briefly: Compound was tested for hyperalgesia in mice induced by formalin expressed as time of licking at late phase(up to 30 min) at 400 mg/kg.
For experiment [9], the system named is Mus musculus. Briefly: Inhibition of acetic acid induced writhing in mice at dose of 50 mg/kg.
The subject of experiment [10] is Mus musculus. Briefly: Inhibition of acetic acid induced writhing in mice at dose of 200 mg/kg.
Experiment [11] deals with Mus musculus. The experiment is described as follows: Compound was tested for hyperalgesia in mice induced by formalin expressed as time of licking at initial phase(up to 5 min) at 400 mg/kg.
Experiment [12] concerns Mus musculus. The experiment is described as follows: Inhibition of acetic acid induced writhing in mice at dose of 100 mg/kg.
The test system of experiment [13] is Mus musculus. The experiment is described as follows: Inhibition of acetic acid induced writhing in mice at dose of 25 mg/kg.
The test system of experiment [14] is Mus musculus. The experiment is described as follows: Compound was tested for hyperalgesia in mice induced by formalin expressed as time of licking at initial phase(up to 5 min) at dose 10 mg/kg.
In experiment [15] the test system is Mus musculus. Briefly: Compound was tested for hyperalgesia in mice induced by formalin expressed as time of licking at late phase(up to 30 min) at dose 10 mg/kg.

Among the data in ChEMBL document CHEMBL1130654, “New phthalimide derivatives with potent analgesic activity: II” (1998) are inhibition in vivo, ID50 and Time of licking values, retold here.

Structures are written as SMILES.

`Cc1ccccc1-c1noc(CN2C(=O)c3ccccc3C2=O)n1` gave an inhibition in vivo at 1.56 mg/kg in the experiment on Mus musculus [1] of 12.1%. In the experiment with Mus musculus [2], this compound showed an inhibition in vivo at 6.25 mg/kg of 80.5%. In the experiment with Mus musculus [3], this compound showed an ID50 of 3.1 and an inhibition in vivo at 3.12 mg/kg of 76.5%.

In the experiment on Mus musculus [4], `COc1ccc(-c2noc(CN3C(=O)c4ccccc4C3=O)n2)cc1` gave an inhibition in vivo at 25 mg/kg of 62.6%. In the experiment on Mus musculus [5], this compound came in with an ID50 of 14.9 and an inhibition in vivo at 12.5 mg/kg of 53.3%. This compound also yielded an inhibition in vivo at 6.25 mg/kg in the experiment with Mus musculus [2] of 41.9%. Testing at 3.12 mg/kg in the experiment with Mus musculus [3] gave an inhibition in vivo of 20.7%.

Compound `Cc1ccc(-c2noc(CN3C(=O)c4ccccc4C3=O)n2)cc1` returned an inhibition in vivo at 12.5 mg/kg in the experiment on Mus musculus [5] of 72.5%. Besides, in the experiment with Mus musculus [2], the ID50 amounted to 7.2 and at 6.25 mg/kg the inhibition in vivo was 62.4%. This compound also yielded an inhibition in vivo at 3.12 mg/kg with Mus musculus [3] of 16.1%.

For `O=C1c2ccccc2C(=O)N1Cc1nc(-c2ccccc2)no1`, in the experiment on Mus musculus [1], at 1.56 mg/kg the inhibition in vivo was 38.9%. This compound also had an inhibition in vivo at 6.25 mg/kg in the experiment with Mus musculus [2] of 73.8%. Further, in the experiment with Mus musculus [6], the Time of licking turned out to be 143 s. In the experiment with Mus musculus [3], this compound gave an ID50 of 2.2 and an inhibition in vivo at 3.12 mg/kg of 67.1%. Further, the Time of licking with Mus musculus [7] was 84 s.

In the experiment with Mus musculus [8], `CC(=O)Oc1ccccc1C(=O)O` [ASPIRIN] returned a Time of licking of 0 s. For the same compound, in the experiment on Mus musculus [9], the inhibition in vivo at 50 mg/kg came out at 38.2%. The compound also returned an inhibition in vivo at 200 mg/kg with Mus musculus [10] of 74%. The compound further registered a Time of licking in the experiment with Mus musculus [11] of 48 s. Besides, in the experiment on Mus musculus [12], the ID50 is on record as 80.8 and testing at 100 mg/kg gave an inhibition in vivo of 61.7%.

With `O=C1c2ccccc2C(=O)N1Cc1nc(-c2ccc(Cl)cc2)no1`, 25 mg/kg produced 59.6% inhibition in vivo with Mus musculus [13]. In the experiment with Mus musculus [5], this compound yielded an ID50 of 20.3 and an inhibition in vivo at 12.5 mg/kg of 35.1%. This compound yielded an inhibition in vivo at 6.25 mg/kg with Mus musculus [2] of 16.3%.

In turn, `Cc1cccc(-c2noc(CN3C(=O)c4ccccc4C3=O)n2)c1` showed an inhibition in vivo at 1.56 mg/kg in the experiment with Mus musculus [1] of 25.5%. The compound further showed an inhibition in vivo at 6.25 mg/kg in the experiment on Mus musculus [2] of 79.2%. Moreover, in the experiment on Mus musculus [3], the ID50 is 2.9 and testing at 3.12 mg/kg gave an inhibition in vivo of 67.1%.

On to `CN1CC[C@]23c4c5ccc(O)c4O[C@H]2[C@@H](O)C=C[C@H]3[C@H]1C5` [MORPHINE], for which the figures for the Time of licking with Mus musculus [14] and in the experiment on Mus musculus [15] were 41 s and 0 s, respectively.

For `O=C1c2ccccc2C(=O)N1Cc1nc(-c2ccc([N+](=O)[O-])cc2)no1`, the inhibition in vivo at 1.56 mg/kg with Mus musculus [1] stood at 29.8%. Further, the inhibition in vivo at 6.25 mg/kg with Mus musculus [2] is 62.9%. In the experiment with Mus musculus [3], the ID50 was 4.1 and the inhibition in vivo at 3.12 mg/kg came to 47.4%.

A word on the inhibition in vivo: it is the relative decrease from the control value, in per cent.
